This assay addresses Metabotropic glutamate receptor 4 (Homo sapiens, UniProt Q14833). The experiment in a line: Intracellular Ca2+ Mobilization Assay (FLIPR). On the procedure:
A monoclonal HEK-293 cell line stably transfected with a cDNA encoding for the human mGlu4 receptor was generated. Cells were cultured according to standard protocols (Freshney, 2000) in Dulbecco's Modified Eagle Medium with high glucose supplemented with 1 mM glutamine, 10% (vol/vol) heat-inactivated bovine calf serum, penicillin/streptomycin, 50 μg/ml hygromycin and 15 μg/ml blasticidin (all cell culture reagents and antibiotics from Invitrogen, Basel, Switzerland).About 24 hrs before an experiment, 5×10^4 cells/well were seeded in poly-D-lysine coated, black/clear-bottomed 96-well plates. The cells were loaded with 2.5 μM Fluo-4AM in loading buffer (1×HBSS, 20 mM HEPES) for 1 hr at 37° C. and washed five times with loading buffer. The cells were transferred into a Functional Drug Screening System 7000 (Hamamatsu, Paris, France), and 11 half logarithmic serial dilutions of test compound at 37° C. were added and the cells were incubated for 10-30 min. with on-line recording of fluorescence. […]
Background: Calcium flux is commonly read through the fluorescence of an indicator in the cells.

Results on one compound are retold here after BindingDB's records for patent US12065399 (Hoffmann-La Roche, 2024).

Structures are written as SMILES.

What is called EC50 is the concentration that produces a half-maximal response.

Sequence of Metabotropic glutamate receptor 4 (Q14833 whole entry): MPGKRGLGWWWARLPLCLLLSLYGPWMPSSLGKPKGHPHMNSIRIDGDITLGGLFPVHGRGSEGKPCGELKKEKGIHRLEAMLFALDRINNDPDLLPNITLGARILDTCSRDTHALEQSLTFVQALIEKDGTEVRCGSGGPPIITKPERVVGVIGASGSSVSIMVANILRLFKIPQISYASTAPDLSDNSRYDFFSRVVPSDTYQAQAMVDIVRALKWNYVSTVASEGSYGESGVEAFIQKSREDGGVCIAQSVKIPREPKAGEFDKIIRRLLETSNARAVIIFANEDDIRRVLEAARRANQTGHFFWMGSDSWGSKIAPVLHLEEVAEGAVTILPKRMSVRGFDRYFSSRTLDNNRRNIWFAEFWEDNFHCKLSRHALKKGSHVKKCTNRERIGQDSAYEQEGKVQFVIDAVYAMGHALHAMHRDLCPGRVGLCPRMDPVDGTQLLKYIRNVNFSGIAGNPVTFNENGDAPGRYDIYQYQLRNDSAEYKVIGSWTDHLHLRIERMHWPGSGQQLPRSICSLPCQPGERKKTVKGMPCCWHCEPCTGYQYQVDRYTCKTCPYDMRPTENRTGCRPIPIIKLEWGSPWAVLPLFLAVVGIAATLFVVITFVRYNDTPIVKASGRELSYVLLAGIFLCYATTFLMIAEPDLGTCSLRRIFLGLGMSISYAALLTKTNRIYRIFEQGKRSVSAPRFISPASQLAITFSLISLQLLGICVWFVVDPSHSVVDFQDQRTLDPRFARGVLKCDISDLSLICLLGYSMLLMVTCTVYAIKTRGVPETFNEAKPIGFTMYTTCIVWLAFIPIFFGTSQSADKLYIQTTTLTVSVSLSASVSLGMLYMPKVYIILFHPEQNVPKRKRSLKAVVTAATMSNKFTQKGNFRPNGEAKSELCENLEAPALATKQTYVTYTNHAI

Consider `CC(C)(C)c1cnn(-c2cc(F)c(NS(=O)(=O)c3cccc(Cl)c3Cl)c(F)c2)c1` [US12065399, Example 59], for which the EC50 is 9.28 µM.
